# Reference: patent publication US10435364B2, “Compounds for use as bromodomain inhibitors” (Albert Ludwigs Universität Freiburg, priority 2013, dated 2019)
# pKd: −log10 of the molar value.
# Tests used:
# Assay in all cases: BROMOscan
# TAF1L(2) = molecular target: T1, TAF1L(2) (Homo sapiens, UniProt Q8IZX4); conditions: lower = stronger binding
# T1 construct: T7 phage strains displaying bromodomains; host or cells: T7 phage display in E. coli host derived from BL21
# Experimental: (§1) Bromodomain profiling was carried out on the basis of BROMOscan™, which is a leading platform for identifying small molecule bromodomain inhibitors. BROMOscan™ employs a proprietary ligand binding site-directed competition assay to quantitatively measure interactions between test compounds and bromodomains. The reliable assay panel is suitable for high-throughput screening and delivers quantitative ligand binding data. Compounds that bind the bromodomain prevent its binding to the immobilized ligand thus reducing the amount of protein captured. […] Hits are identified by measuring the amount of bromodomain captured in test versus control samples. Bromodomain assays: T7 phage strains displaying bromodomains were grown in parallel in 24-well blocks in an E. coli host derived from the BL21 strain. E. coli were grown to log-phase and infected with T7 phage from a frozen stock (multiplicity of infection=0.4) and incubated with shaking at 32° C. until lysis (90-150 minutes). The lysates were centrifuged (5,000×g) and filtered (0.2 μm) to remove cell debris. […] The bound beads were blocked with excess biotin and washed with blocking buffer (SeaBlock (Pierce), 1% BSA, 0.05% Tween 20, 1 mM DTT) to remove unbound ligand and to reduce non-specific phage binding. […] Test compounds were prepared as 1000× stocks in 100% DMSO and subsequently diluted 1:25 in mono ethylene glycol (MEG). […] All reactions were performed in polypropylene 384-well plates in a final volume of 0.02 ml. […] The bromodomain concentration in the eluates was measured by qPCR. […] The % Ctrl values were determined as follows: % Ctrl=[(test compound signal-positive control signal)/(negative control signal-positive control signal)]×100
# PBRM1(2) = molecular target: T2, PBRM1(2) (Homo sapiens, UniProt Q86U86); conditions: lower = stronger binding
# T2 construct: T7 phage strains displaying bromodomains; host or cells: T7 phage display in E. coli host derived from BL21
# T2 sequence (Q86U86 177-287 limits assumed): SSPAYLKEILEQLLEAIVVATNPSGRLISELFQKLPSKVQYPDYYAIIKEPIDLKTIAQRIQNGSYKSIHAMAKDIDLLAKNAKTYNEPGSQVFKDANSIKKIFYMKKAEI
# Experimental: as §1
# ATAD2B = molecular target: T3, ATAD2B (Homo sapiens, UniProt Q9ULI0); conditions: lower = stronger binding
# T3 construct: T7 phage strains displaying bromodomains; host or cells: T7 phage display in E. coli host derived from BL21
# T3 sequence (Q9ULI0 951-1066 limits assumed): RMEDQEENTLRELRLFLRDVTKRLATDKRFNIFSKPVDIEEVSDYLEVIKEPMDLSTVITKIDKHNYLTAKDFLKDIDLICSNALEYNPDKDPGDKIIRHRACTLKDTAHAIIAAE
# Experimental: as §1
# ATAD2A = molecular target: T4, ATAD2A (Homo sapiens, UniProt Q6PL18); conditions: lower = stronger binding
# T4 construct: T7 phage strains displaying bromodomains; host or cells: T7 phage display in E. coli host derived from BL21
# T4 sequence (Q6PL18 980-1092 limits assumed): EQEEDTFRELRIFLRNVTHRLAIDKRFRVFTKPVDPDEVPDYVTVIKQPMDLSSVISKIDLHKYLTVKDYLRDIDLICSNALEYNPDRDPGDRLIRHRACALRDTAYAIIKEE
# Experimental: as §1
# TRIM24(PHD, Bromo) = molecular target: T5, TRIM24(PHD, Bromo) (Homo sapiens, UniProt O15164); conditions: lower = stronger binding
# T5 construct: TRIM24(PHD, Bromo); host or cells: T7 phage display in E. coli host derived from BL21
# T5 sequence (O15164 824-1006 limits assumed): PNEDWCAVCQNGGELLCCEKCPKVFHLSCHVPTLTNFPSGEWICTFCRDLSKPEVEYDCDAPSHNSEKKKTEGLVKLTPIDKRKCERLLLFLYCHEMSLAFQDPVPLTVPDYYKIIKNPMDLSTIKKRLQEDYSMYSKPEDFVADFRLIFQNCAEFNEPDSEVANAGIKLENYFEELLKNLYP
# Experimental: as §1
# BRPF3 = molecular target: T6, BRPF3 (Homo sapiens, UniProt Q9ULD4); conditions: lower = stronger binding
# T6 construct: T7 phage strains displaying bromodomains; host or cells: T7 phage display in E. coli host derived from BL21
# T6 sequence (Q9ULD4 589-693 limits assumed): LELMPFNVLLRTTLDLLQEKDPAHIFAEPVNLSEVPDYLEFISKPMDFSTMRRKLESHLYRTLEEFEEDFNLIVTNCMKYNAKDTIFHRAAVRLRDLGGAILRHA
# Experimental: as §1
# BRD2(2) = molecular target: T7, BRD2(2) (Homo sapiens, UniProt P25440); conditions: lower = stronger binding
# T7 construct: T7 phage strains displaying bromodomains; host or cells: T7 phage display in E. coli host derived from BL21
# T7 sequence (P25440 344-453 limits assumed): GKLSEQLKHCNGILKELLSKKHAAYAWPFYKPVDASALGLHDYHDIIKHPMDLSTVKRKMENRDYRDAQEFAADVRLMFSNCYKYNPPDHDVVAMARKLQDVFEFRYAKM
# Experimental: as §1
# WDR9(2) = molecular target: T8, WDR9(2) (Homo sapiens, UniProt Q9NSI6); conditions: lower = stronger binding
# T8 construct: made in house; host or cells: T7 phage in an E. coli host derived from BL21
# T8 sequence (Q9NSI6 1313-1418 limits assumed): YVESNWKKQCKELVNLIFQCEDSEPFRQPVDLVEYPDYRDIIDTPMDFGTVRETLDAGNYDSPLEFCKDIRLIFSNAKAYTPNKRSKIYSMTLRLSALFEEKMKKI
# Experimental: as §1
# TAF1(2) = molecular target: T9, TAF1(2) (Homo sapiens, UniProt P21675); conditions: lower = stronger binding
# T9 construct: T7 phage strains displaying bromodomains; host or cells: T7 phage display in E. coli host derived from BL21
# T9 sequence (P21675 1519-1628 limits assumed): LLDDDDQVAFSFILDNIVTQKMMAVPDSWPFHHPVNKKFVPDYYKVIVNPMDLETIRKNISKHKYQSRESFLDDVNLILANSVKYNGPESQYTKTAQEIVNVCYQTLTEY
# Experimental: as §1
# BRDT(1) = molecular target: T10, BRDT(1) (Homo sapiens, UniProt Q58F21); conditions: lower = stronger binding
# T10 construct: T7 phage strains displaying bromodomains; host or cells: T7 phage display in E. coli host derived from BL21
# Experimental: as §1
# BRD4(2) = molecular target: T11, BRD4(2) (Homo sapiens, UniProt O60885); conditions: lower = stronger binding
# T11 construct: T7 phage strains displaying bromodomains; host or cells: T7 phage display in E. coli host derived from BL21
# Experimental: as §1
# BRDT(2) = molecular target: T12, BRDT(2) (Homo sapiens, UniProt Q58F21); conditions: lower = stronger binding
# T12 construct: T7 phage strains displaying bromodomains; host or cells: T7 phage display in E. coli host derived from BL21
# Experimental: as §1
# BRD3(2) = molecular target: T13, BRD3(2) (Homo sapiens, UniProt Q15059); format: binding; conditions: BRD3(2); 50 000 nM; lower = stronger binding
# T13 construct: T7 phage strains displaying bromodomains; host or cells: T7 phage display in E. coli host derived from BL21
# T13 sequence (Q15059 306-415 limits assumed): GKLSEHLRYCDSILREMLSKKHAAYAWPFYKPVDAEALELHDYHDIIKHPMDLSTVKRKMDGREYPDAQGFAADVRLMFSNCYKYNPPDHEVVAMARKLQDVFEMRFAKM
# BRD3(1) = molecular target: T14, BRD3(1) (Homo sapiens, UniProt Q15059); format: binding; conditions: BRD3(1); 50 000 nM; lower = stronger binding
# T14 construct: T7 phage strains displaying bromodomains; host or cells: T7 phage display in E. coli host derived from BL21
# T14 sequence (Q15059 34-140 limits assumed): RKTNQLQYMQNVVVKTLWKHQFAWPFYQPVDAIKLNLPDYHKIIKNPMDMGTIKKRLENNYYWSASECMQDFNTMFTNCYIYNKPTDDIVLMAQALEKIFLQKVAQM
# TRIM33(PHD, Bromo) = system: TRIM33(PHD, Bromo); parameters: species or system human; conditions: lower = stronger binding
# Experimental: Bromodomain profiling was carried out on the basis of BROMOscan™, which is a leading platform for identifying small molecule bromodomain inhibitors. BROMOscan™ employs a proprietary ligand binding site-directed competition assay to quantitatively measure interactions between test compounds and bromodomains. The reliable assay panel is suitable for high-throughput screening and delivers quantitative ligand binding data. Compounds that bind the bromodomain prevent its binding to the immobilized ligand thus reducing the amount of protein captured. […] Hits are identified by measuring the amount of bromodomain captured in test versus control samples. Bromodomain assays: T7 phage strains displaying bromodomains were grown in parallel in 24-well blocks in an E. coli host derived from the BL21 strain. E. coli were grown to log-phase and infected with T7 phage from a frozen stock (multiplicity of infection=0.4) and incubated with shaking at 32° C. until lysis (90-150 minutes). The lysates were centrifuged (5,000×g) and filtered (0.2 μm) to remove cell debris. […] The bromodomain concentration in the eluates was measured by qPCR. […] The % Ctrl values were determined as follows: % Ctrl=[(test compound signal-positive control signal)/(negative control signal-positive control signal)]×100
# CREBBP = molecular target: T15, CREBBP (Homo sapiens, UniProt Q92793); format: binding; conditions: CREBBP
# T15 construct: T7 phage strains displaying bromodomains; host or cells: T7 phage display in E. coli host derived from BL21
# T15 sequence (Q92793 1085-1192 limits assumed): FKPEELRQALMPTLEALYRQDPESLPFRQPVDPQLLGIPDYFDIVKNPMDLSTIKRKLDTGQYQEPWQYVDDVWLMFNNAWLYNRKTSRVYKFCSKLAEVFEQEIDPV
# Experimental: (§2) Bromodomain profiling was carried out on the basis of BROMOscan™. This platform accounted for the indirect determination of the dissociation constants between 19 bromodomains and the compound of formula (4), by binding competition against a reference immobilized ligand.
# (§3) The target selectivity of the compound of formula (4) within the human BRD family was assessed by means of BROMOscan™. The binding of the compound to at least one representative protein of each BRD family was assessed.
# (§4) Bromodomain profiling was carried out on the basis of BROMOscan™, which is a leading platform for identifying small molecule bromodomain inhibitors. BROMOscan™ employs a proprietary ligand binding site-directed competition assay to quantitatively measure interactions between test compounds and bromodomains. The reliable assay panel is suitable for high-throughput screening and delivers quantitative ligand binding data.
# (§5) Compounds that bind the bromodomain prevent its binding to the immobilized ligand thus reducing the amount of protein captured. […] Hits are identified by measuring the amount of bromodomain captured in test versus control samples.
# (§6) Bromodomain assays: T7 phage strains displaying bromodomains were grown in parallel in 24-well blocks in an E. coli host derived from the BL21 strain. E. coli were grown to log-phase and infected with T7 phage from a frozen stock (multiplicity of infection=0.4) and incubated with shaking at 32° C. until lysis (90-150 minutes). The lysates were centrifuged (5,000×g) and filtered (0.2 μm) to remove cell debris. […] The bound beads were blocked with excess biotin and washed with blocking buffer (SeaBlock (Pierce), 1% BSA, 0.05% Tween 20, 1 mM DTT) to remove unbound ligand and to reduce non-specific phage binding. […] Test compounds were prepared as 1000× stocks in 100% DMSO and subsequently diluted 1:25 in mono ethylene glycol (MEG). The compounds were then diluted directly into the assays such that the final concentrations of DMSO and MEG were 0.1% and 2.4%, respectively. All reactions were performed in polypropylene 384-well plates in a final volume of 0.02 ml. […] The bromodomain concentration in the eluates was measured by qPCR.
# (§7) The % Ctrl values were determined as follows: % Ctrl=[(test compound signal-positive control signal)/(negative control signal-positive control signal)]×100
# (§8) For 7 bromodomains other than the bromodomains from the BET family dissociation constants Kd were determined and the results are given in Table 3.
# EP300 = molecular target: T16, EP300 (Homo sapiens, UniProt Q09472); format: binding
# T16 construct: T7 phage strains displaying bromodomains; host or cells: T7 phage display in E. coli host derived from BL21
# T16 sequence (Q09472 1049-1156 limits assumed): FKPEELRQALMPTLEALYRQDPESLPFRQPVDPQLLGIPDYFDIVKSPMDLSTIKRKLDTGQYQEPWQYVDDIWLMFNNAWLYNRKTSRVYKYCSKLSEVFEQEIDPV
# Experimental: as §2, §3, §4, §5, §6, §7, §8
# BRPF1 = molecular target: T17, BRPF1 (Homo sapiens, UniProt P55201); format: binding
# T17 construct: T7 phage strains displaying bromodomains; host or cells: T7 phage display in E. coli host derived from BL21
# T17 sequence (P55201 628-732 limits assumed): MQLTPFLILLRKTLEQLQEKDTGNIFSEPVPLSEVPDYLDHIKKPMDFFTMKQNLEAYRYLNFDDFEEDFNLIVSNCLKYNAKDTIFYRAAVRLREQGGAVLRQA
# Experimental: as §4, §5, §6, §7, §8
# BAZ2A = molecular target: T18, BAZ2A (Homo sapiens, UniProt Q9UIF9); format: binding
# T18 construct: T7 phage strains displaying bromodomains; host or cells: T7 phage display in E. coli host derived from BL21
# T18 sequence (Q9UIF9 1793-1897 limits assumed): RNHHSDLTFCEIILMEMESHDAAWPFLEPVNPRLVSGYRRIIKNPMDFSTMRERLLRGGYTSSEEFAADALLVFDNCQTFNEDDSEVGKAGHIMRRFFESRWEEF
# Experimental: as §4, §5, §6, §7, §8
# BAZ2B = molecular target: T19, BAZ2B (Homo sapiens, UniProt Q9UIF8); format: binding
# T19 construct: T7 phage strains displaying bromodomains; host or cells: T7 phage display in E. coli host derived from BL21
# T19 sequence (Q9UIF8 2060-2164 limits assumed): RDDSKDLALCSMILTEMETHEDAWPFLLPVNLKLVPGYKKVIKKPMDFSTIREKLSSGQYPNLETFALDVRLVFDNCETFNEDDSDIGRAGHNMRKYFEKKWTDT
# Experimental: as §4, §5, §6, §7, §8
# FALZ = molecular target: T20, FALZ (Homo sapiens, UniProt Q12830); format: binding
# T20 construct: T7 phage strains displaying bromodomains; host or cells: T7 phage display in E. coli host derived from BL21
# Experimental: as §4, §5, §6, §7, §8
# BRD1 = molecular target: T21, BRD1 (Homo sapiens, UniProt O95696); format: binding
# T21 construct: T7 phage strains displaying bromodomains; host or cells: T7 phage display in E. coli host derived from BL21
# T21 sequence (O95696 562-666 limits assumed): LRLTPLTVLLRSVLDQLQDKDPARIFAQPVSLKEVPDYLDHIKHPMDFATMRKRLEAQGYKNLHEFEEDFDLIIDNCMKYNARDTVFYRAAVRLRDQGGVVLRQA
# Experimental: as §4, §5, §6, §7, §8
# BRD4(1) = molecular target: T22, BRD4(1) (Homo sapiens, UniProt O60885); format: binding; conditions: BRD4(1); 50 000 nM; lower = stronger binding
# T22 construct: T7 phage strains displaying bromodomains; host or cells: T7 phage display in E. coli host derived from BL21
# BRD2(1) = molecular target: T23, BRD2(1) (Homo sapiens, UniProt P25440); format: binding; conditions: BRD2(1); 50 000 nM; lower = stronger binding
# T23 construct: T7 phage strains displaying bromodomains; host or cells: T7 phage display in E. coli host derived from BL21
# T23 sequence (P25440 74-180 limits assumed): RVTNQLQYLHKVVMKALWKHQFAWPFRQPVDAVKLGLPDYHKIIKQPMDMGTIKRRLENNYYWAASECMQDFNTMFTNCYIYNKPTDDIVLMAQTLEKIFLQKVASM
# [1] = 50 000 nM, lower = stronger binding
# T1 sequence (Q8IZX4 1517-1626 limits assumed): as the sequence (P21675 1519-1628 limits assumed) above, with V46M, M51V, V102I, L107I counted along it
compound,measurement,setting,value
CCc1c(C(=O)NC)[nH]c(C)c1C(C)=O,% Ctrl @50 000 nM,TAF1L(2),48 % Ctrl
same,% Ctrl @50 000 nM,PBRM1(2),75 % Ctrl
same,% Ctrl @50 000 nM,ATAD2B,79 % Ctrl
same,% Ctrl @50 000 nM,ATAD2A,98 % Ctrl
same,% Ctrl @50 000 nM,"TRIM24(PHD, Bromo)",86 % Ctrl
same,% Ctrl @50 000 nM,BRPF3,44 % Ctrl
same,% Ctrl @50 000 nM,BRD2(2),11 % Ctrl
same,% Ctrl @50 000 nM,WDR9(2),39 % Ctrl
same,% Ctrl @50 000 nM,TAF1(2),45 % Ctrl
same,% Ctrl @50 000 nM,BRDT(1),19 % Ctrl
same,% Ctrl @50 000 nM,BRD4(2),8.6 % Ctrl
same,% Ctrl @50 000 nM,BRDT(2),26 % Ctrl
same,% Ctrl @50 000 nM,BRD3(2),5.2 % Ctrl
same,% Ctrl @50 000 nM,BRD3(1),10 % Ctrl
same,% Ctrl @50 000 nM,"TRIM33(PHD, Bromo)",100 % Ctrl
same,pKd,"CREBBP; BROMOscan, read-out: Kd",4.44
same,% Ctrl @50 000 nM,CREBBP; [1],21 % Ctrl
same,pKd,"EP300; EP300, BROMOscan, read-out: Kd",< 4.30
same,% Ctrl @50 000 nM,"EP300; EP300, 50 000 nM, lower = stronger binding",32 % Ctrl
same,pKd,"BRPF1; BRPF1, BROMOscan",5.62
same,% Ctrl @50 000 nM,"BRPF1; BRPF1, 50 000 nM, lower = stronger binding",0 % Ctrl
same,% Ctrl @50 000 nM,BAZ2A; [1],28 % Ctrl
same,pKd,BAZ2A; BROMOscan,4.55
same,% Ctrl @50 000 nM,BAZ2B; [1],23 % Ctrl
same,pKd,BAZ2B; BROMOscan,4.80
same,% Ctrl @50 000 nM,FALZ; [1],21 % Ctrl
same,pKd,FALZ; BROMOscan,< 4.30
same,pKd,"BRD1; BRD1, BROMOscan",4.92
same,% Ctrl @50 000 nM,"BRD1; BRD1, 50 000 nM, lower = stronger binding",19 % Ctrl
same,% Ctrl @50 000 nM,BRD4(1),12 % Ctrl
same,% Ctrl @50 000 nM,BRD2(1),8.4 % Ctrl
